From ChEMBL document CHEMBL5370585, “Exploration and Biological Evaluation of 1,3-Diamino-7H-pyrrol[3,2-f]quinazoline Derivatives as Dihydrofolate Reductase Inhibitors” (J Med Chem, 2023)
pIC50: −log10 of the molar value. Values after ≈ are worked out from the molar mass of the structure shown.

Tests used:
Escherichia coli [1] = experiment: Antibacterial activity against Escherichia coli ECO 15-1 incubated for 16 to 18 hrs by CLSI based broth dilution method; assay type: functional; conditions: time 16-18 hrs
Acinetobacter baumannii [2] = experiment: Antibacterial activity against Acinetobacter baumannii ATCC 19606 assessed as reduction in microbial growth incubated for 16 to 18 hrs by CLSI based broth dilution method; assay type: functional; conditions: time 16-18 hrs
Enterococcus faecalis [3] = experiment: Antibacterial activity against Enterococcus faecalis EFA19-2 incubated for 16 to 18 hrs by CLSI based broth dilution method; assay type: functional; conditions: time 16-18 hrs
Acinetobacter baumannii [4] = experiment: Antibacterial activity against Acinetobacter baumannii 20-1 incubated for 16 to 18 hrs by CLSI based broth dilution method; assay type: functional; conditions: time 16-18 hrs
Enterococcus faecalis [5] = experiment: Antibacterial activity against Enterococcus faecalis ATCC 29212 incubated for 16 to 18 hrs by CLSI based broth dilution method; assay type: functional; conditions: time 16-18 hrs
HCT-116 = experiment: Cytotoxicity against human HCT-116 cells measured after 72 hrs by MTT assay; assay type: functional, cell-based; conditions: HCT-116, 72 h
Staphylococcus aureus [6] = experiment: Antibacterial activity against Staphylococcus aureus ATCC 29213 incubated for 16 to 18 hrs by CLSI based broth dilution method; assay type: functional; conditions: time 16-18 hrs
Escherichia coli [7] = experiment: Antibacterial activity against Escherichia coli ATCC 25922 incubated for 16 to 18 hrs by CLSI based broth dilution method; assay type: functional; conditions: time 16-18 hrs
Staphylococcus aureus [8] = experiment: Antibacterial activity against methicillin-sensitive Staphylococcus aureus ATCC 29213 incubated for 16 to 18 hrs by CLSI based broth dilution method; assay type: functional; conditions: time 16-18 hrs
Staphylococcus aureus [9] = experiment: Antibacterial activity against methicillin-sensitive Staphylococcus aureus 15-2 incubated for 16 to 18 hrs by CLSI based broth dilution method; assay type: functional; conditions: time 16-18 hrs
Escherichia coli [10] = experiment: Antibacterial activity against Escherichia coli ATCC BAA-2340 incubated for 16 to 18 hrs by CLSI based broth dilution method; assay type: functional; conditions: time 16-18 hrs
Pseudomonas aeruginosa = experiment: Antibacterial activity against Pseudomonas aeruginosa ATCC 27853 incubated for 16 to 18 hrs by CLSI based broth dilution method; assay type: functional; conditions: time 16-18 hrs
Enterococcus = experiment: Antibacterial activity against Vancomycin-resistant Enterococcus ATCC 51575 incubated for 16 to 18 hrs by CLSI based broth dilution method; assay type: functional; conditions: time 16-18 hrs
Staphylococcus aureus [11] = experiment: Antibacterial activity against methicillin-resistant Staphylococcus aureus ATCC 43300 incubated for 16 to 18 hrs by CLSI based broth dilution method; assay type: functional; conditions: time 16-18 hrs
Acinetobacter baumannii [12] = experiment: Antibacterial activity against Acinetobacter baumannii 20-2 incubated for 16 to 18 hrs by CLSI based broth dilution method; assay type: functional; conditions: time 16-18 hrs
HepG2 = experiment: Cytotoxicity against human HepG2 cells measured after 72 hrs by MTT assay; assay type: functional, cell-based; conditions: HepG2, 72 h
Staphylococcus aureus [13] = experiment: Antibacterial activity against methicillin-sensitive Staphylococcus aureus 15-1 incubated for 16 to 18 hrs by CLSI based broth dilution method; assay type: functional; conditions: time 16-18 hrs
Staphylococcus aureus [14] = experiment: Antibacterial activity against methicillin-resistant Staphylococcus aureus ATCC 33591 incubated for 16 to 18 hrs by CLSI based broth dilution method; assay type: functional; conditions: time 16-18 hrs
Acinetobacter baumannii [15] = experiment: Antibacterial activity against Acinetobacter baumannii ATCC 19606 incubated for 16 to 18 hrs by CLSI based broth dilution method; assay type: functional; conditions: time 16-18 hrs
Staphylococcus aureus [16] = experiment: Antibacterial activity against vancomycin intermediate Staphylococcus aureus ATCC 700699 incubated for 16 to 18 hrs by CLSI based broth dilution method; assay type: functional; conditions: time 16-18 hrs
[17] = target: T1, Dihydrofolate reductase (Homo sapiens) (UniProt P00374); experiment: Inhibition of human DHFR at 1 uM incubated for 10 mins in presence of NADPH by colorimetry based analysis relative to control
T1 sequence (whole entry): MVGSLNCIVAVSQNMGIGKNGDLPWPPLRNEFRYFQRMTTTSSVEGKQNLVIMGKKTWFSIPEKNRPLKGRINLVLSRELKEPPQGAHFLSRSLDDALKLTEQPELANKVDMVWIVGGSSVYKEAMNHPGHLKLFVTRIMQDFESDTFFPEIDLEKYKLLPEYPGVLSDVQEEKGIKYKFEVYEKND

Staphylococcus aureus [18] = experiment: Antibacterial activity against vancomycin intermediate Staphylococcus aureus ATCC 700788 incubated for 16 to 18 hrs by CLSI based broth dilution method; assay type: functional; conditions: time 16-18 hrs
Enterococcus faecalis [19] = experiment: Antibacterial activity against Enterococcus faecalis EFA19-1 incubated for 16 to 18 hrs by CLSI based broth dilution method; assay type: functional; conditions: time 16-18 hrs
Klebsiella pneumoniae [20] = experiment: Antibacterial activity against Klebsiella pneumoniae ATCC 700603 assessed as reduction in microbial growth incubated for 16 to 18 hrs by CLSI based broth dilution method; assay type: functional; conditions: time 16-18 hrs
MCF7 = experiment: Cytotoxicity against human MCF7 cells measured after 72 hrs by MTT assay; assay type: functional, cell-based; conditions: MCF7, 72 h
[21] = test system: Staphylococcus epidermidis; experiment: Antibacterial activity against Staphylococcus epidermidis ATCC 12228 incubated for 16 to 18 hrs by CLSI based broth dilution method; assay type: functional; conditions: time 16-18 hrs
Klebsiella pneumoniae [22] = experiment: Antibacterial activity against Klebsiella pneumoniae 15-1 assessed as reduction in microbial growth incubated for 16 to 18 hrs by CLSI based broth dilution method; assay type: functional; conditions: time 16-18 hrs
HGC-27 = experiment: Cytotoxicity against human HGC-27 cells measured after 72 hrs by MTT assay; assay type: functional, cell-based; conditions: HGC-27, 72 h
Staphylococcus aureus [23] = experiment: Antibacterial activity against methicillin-sensitive Staphylococcus aureus ATCC 25923 incubated for 16 to 18 hrs by CLSI based broth dilution method; assay type: functional; conditions: time 16-18 hrs
[24] = Metabolic stability in mouse liver microsomes assessed as intrinsic clearance at 1 uM measured upto 60 mins in presence of NADPH by LC-MS/MS analysis; assay type: ADME, Microsome; conditions: read-out: CLH
[25] = Metabolic stability in mouse liver microsomes assessed as hepatic clearance at 1 uM measured upto 60 mins in presence of NADPH by LC-MS/MS analysis; assay type: ADME, Microsome; conditions: 1 h

## Nc1nc(N)c2c(ccc3c2ccn3Cc2cccc3cccnc23)n1
Escherichia coli [1]
  MIC: > 64 µg/mL
Acinetobacter baumannii [2]
  MIC: 2 µg/mL
Enterococcus faecalis [3]
  MIC: ≤ 0.03 µg/mL
Acinetobacter baumannii [4]
  MIC: 64 µg/mL (≈ 188 µM)
Enterococcus faecalis [5]
  MIC: 0.06 µg/mL (≈ 0.176 µM)
HCT-116
  pIC50: < 5.00
Staphylococcus aureus [6]
  MIC: 0.25 µg/mL (≈ 0.734 µM)
Escherichia coli [7]
  MIC: 0.5 µg/mL (≈ 1.47 µM)
Staphylococcus aureus [8]
  MIC: ≤ 0.03 µg/mL
Staphylococcus aureus [9]
  MIC: ≤ 0.03 µg/mL
Escherichia coli [10]
  MIC: > 64 µg/mL
Pseudomonas aeruginosa
  MIC: > 64 µg/mL
Enterococcus
  MIC: ≤ 0.03 µg/mL
Staphylococcus aureus [11]
  MIC: ≤ 0.03 µg/mL
Acinetobacter baumannii [12]
  MIC: 2 µg/mL (≈ 5.88 µM)
HepG2
  pIC50: 5.91
Staphylococcus aureus [13]
  MIC: ≤ 0.03 µg/mL
Staphylococcus aureus [14]
  MIC: ≤ 0.03 µg/mL
Acinetobacter baumannii [15]
  MIC: 2 µg/mL (≈ 5.88 µM)
Staphylococcus aureus [16]
  MIC: 0.06 µg/mL (≈ 0.176 µM)
[17]
  inhibition: 38.7%
Staphylococcus aureus [18]
  MIC: ≤ 0.03 µg/mL
Enterococcus faecalis [19]
  MIC: ≤ 0.03 µg/mL
Klebsiella pneumoniae [20]
  MIC: 16 µg/mL
MCF7
  pIC50: 5.84
[21]
  MIC: 1 µg/mL (≈ 2.94 µM)
Klebsiella pneumoniae [22]
  MIC: 16 µg/mL
HGC-27
  pIC50: 5.77
Staphylococcus aureus [23]
  MIC: ≤ 0.03 µg/mL

## Nc1nc(N)c2c(ccc3c2ccn3Cc2ccc3occc3c2)n1
Enterococcus faecalis [5]
  MIC: 0.03 µg/mL (≈ 0.0911 µM)
HCT-116
  pIC50: 5.61
Staphylococcus aureus [6]
  MIC: 0.06 µg/mL (≈ 0.182 µM)
Escherichia coli [7]
  MIC: 0.125 µg/mL (≈ 0.38 µM)
Staphylococcus aureus [11]
  MIC: 0.004 µg/mL (≈ 0.0121 µM)
HepG2
  pIC50: 5.90
Acinetobacter baumannii [15]
  MIC: 1 µg/mL (≈ 3.04 µM)
[17]
  inhibition: 64.5%
MCF7
  pIC50: 6.00
[21]
  MIC: ≤ 0.004 µg/mL
HGC-27
  pIC50: 6.39

## Nc1nc(N)c2c(ccc3c2ccn3Cc2cccc3ccccc23)n1
Escherichia coli [1]
  MIC: > 64 µg/mL
Acinetobacter baumannii [2]
  MIC: 1 µg/mL
Enterococcus faecalis [3]
  MIC: ≤ 0.03 µg/mL
Acinetobacter baumannii [4]
  MIC: 32 µg/mL (≈ 94.3 µM)
Enterococcus faecalis [5]
  MIC: 0.125 µg/mL (≈ 0.368 µM)
HCT-116
  pIC50: < 5.00
Staphylococcus aureus [6]
  MIC: 0.125 µg/mL (≈ 0.368 µM)
Escherichia coli [7]
  MIC: 1 µg/mL (≈ 2.95 µM)
Staphylococcus aureus [8]
  MIC: ≤ 0.03 µg/mL
Staphylococcus aureus [9]
  MIC: ≤ 0.03 µg/mL
Escherichia coli [10]
  MIC: > 64 µg/mL
Pseudomonas aeruginosa
  MIC: > 64 µg/mL
Enterococcus
  MIC: ≤ 0.03 µg/mL
Staphylococcus aureus [11]
  MIC: 0.06 µg/mL (≈ 0.177 µM)
Acinetobacter baumannii [12]
  MIC: 2 µg/mL (≈ 5.89 µM)
HepG2
  pIC50: 6.28
Staphylococcus aureus [13]
  MIC: ≤ 0.03 µg/mL
Staphylococcus aureus [14]
  MIC: ≤ 0.03 µg/mL
Acinetobacter baumannii [15]
  MIC: 1 µg/mL (≈ 2.95 µM)
Staphylococcus aureus [16]
  MIC: 0.06 µg/mL (≈ 0.177 µM)
[17]
  inhibition: 83.9%
Staphylococcus aureus [18]
  MIC: ≤ 0.03 µg/mL
Enterococcus faecalis [19]
  MIC: ≤ 0.03 µg/mL
Klebsiella pneumoniae [20]
  MIC: 4 µg/mL
MCF7
  pIC50: 6.34
[21]
  MIC: 1 µg/mL (≈ 2.95 µM)
Klebsiella pneumoniae [22]
  MIC: 4 µg/mL
HGC-27
  pIC50: 6.00
Staphylococcus aureus [23]
  MIC: ≤ 0.03 µg/mL

## COc1ccc2c(c1)[C@]13CCCC[C@@H]1[C@H](C2)N(C)CC3 [DEXTROMETHORPHAN]
[24]
  microsomal CLint at 1 µM: 135 µL/min/mg
[25]
  CLH: 77 mL/min/kg

## Nc1nc(N)c2c(ccc3c2ccn3Cc2cccc3sc(N)nc23)n1
Enterococcus faecalis [5]
  MIC: 0.25 µg/mL (≈ 0.692 µM)
HCT-116
  pIC50: 5.24
Staphylococcus aureus [6]
  MIC: 0.25 µg/mL (≈ 0.692 µM)
Escherichia coli [7]
  MIC: 0.5 µg/mL (≈ 1.38 µM)
Staphylococcus aureus [11]
  MIC: 0.125 µg/mL (≈ 0.346 µM)
HepG2
  pIC50: 6.59
Acinetobacter baumannii [15]
  MIC: 32 µg/mL (≈ 88.5 µM)
[17]
  inhibition: 77.4%
MCF7
  pIC50: 6.10
[21]
  MIC: ≤ 0.004 µg/mL
HGC-27
  pIC50: 5.75

## Nc1nc(N)c2c(ccc3c2cc(-c2ccccc2)n3Cc2nc3ccccc3s2)n1
Enterococcus faecalis [5]
  MIC: 32 µg/mL (≈ 75.7 µM)
HCT-116
  pIC50: < 6.00
Staphylococcus aureus [6]
  MIC: > 128 µg/mL
Escherichia coli [7]
  MIC: > 128 µg/mL
Staphylococcus aureus [11]
  MIC: > 128 µg/mL
HepG2
  pIC50: < 6.00
Acinetobacter baumannii [15]
  MIC: > 128 µg/mL
[17]
  inhibition: 17.3%
MCF7
  pIC50: < 6.00
[21]
  MIC: 64 µg/mL (≈ 151 µM)
HGC-27
  pIC50: < 6.00
